Reference: patent publication US8138189B2, “Substituted benzene compounds as modulators of the glucocorticoid receptor” (Hoffman-La Roche Inc., priority 2009, dated 2012)
pKi: −log10 of the molar value.

Target: T1, full length human recombinant glucocorticoid receptor (Homo sapiens, UniProt P04150)
T1 construct: partially purified full length human recombinant glucocorticoid receptor; purchased Panvera/Invitrogen PV4302
T1 sequence (P04150 1-777): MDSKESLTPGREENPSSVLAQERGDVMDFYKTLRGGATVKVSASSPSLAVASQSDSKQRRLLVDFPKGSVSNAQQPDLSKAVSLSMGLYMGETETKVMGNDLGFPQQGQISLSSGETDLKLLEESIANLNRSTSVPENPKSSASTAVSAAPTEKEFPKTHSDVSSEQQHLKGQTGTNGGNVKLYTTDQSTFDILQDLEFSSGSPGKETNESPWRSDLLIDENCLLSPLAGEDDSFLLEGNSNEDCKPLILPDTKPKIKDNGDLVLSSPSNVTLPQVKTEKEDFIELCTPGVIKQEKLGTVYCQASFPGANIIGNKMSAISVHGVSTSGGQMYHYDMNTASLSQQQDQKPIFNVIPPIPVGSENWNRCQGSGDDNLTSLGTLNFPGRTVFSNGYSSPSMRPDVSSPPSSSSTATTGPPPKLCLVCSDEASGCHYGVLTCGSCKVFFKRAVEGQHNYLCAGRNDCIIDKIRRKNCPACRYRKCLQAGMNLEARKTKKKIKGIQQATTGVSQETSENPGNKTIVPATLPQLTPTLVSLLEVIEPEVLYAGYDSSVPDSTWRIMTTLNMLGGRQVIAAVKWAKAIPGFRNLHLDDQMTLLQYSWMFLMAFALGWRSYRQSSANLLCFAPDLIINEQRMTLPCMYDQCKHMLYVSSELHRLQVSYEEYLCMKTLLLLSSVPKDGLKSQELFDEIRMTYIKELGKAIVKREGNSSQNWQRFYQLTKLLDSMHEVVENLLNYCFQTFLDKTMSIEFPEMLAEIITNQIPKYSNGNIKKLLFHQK
Test: Glucocorticoid Receptor Binding Assay (fluorescence polarization competitor assay, Fluormone GS Far Red tracer)
Method in brief: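 Partially purified full-length recombinant human GR with a stabilizing coactivator peptide was incubated with Fluormone GS Far Red tracer and serially diluted compound for 3 h at 22 °C in the dark, pH 7.4. Fluorescence polarization was read at 610-660 nm. IC50 came from sigmoidal fitting, and Ki from Cheng-Prusoff.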

Structure (SMILES)	pKi
C[C@H](c1ccc(-c2nc(C(=O)O)no2)cc1Cl)[C@@](O)(c1ccnc(Cl)c1)C(F)(F)F (stereo in doubt) [Example 48, 5-{3-Chloro-4-[2-(2-chloro-pyridin-4-yl)-3,3,3-trifluoro-2-hydroxy-1-methyl-propyl]-phenyl}-[1,2,4]oxadiazole-3-carboxylic acid]	6.84
COC(=O)c1ccc(-c2ccc([C@@H](C)[C@@](O)(c3ccnc(Cl)c3)C(F)(F)F)c(Cl)c2)cc1 (stereo in doubt) [Example 49, 3′-Chloro-4′-[2-(2-chloro-pyridin-4-yl)-3,3,3-trifluoro-2-hydroxy-1-methyl-propyl]-biphenyl-4-carboxylic acid methyl ester]	7.73
CCOC(=O)c1cccc(-c2ccc([C@@H](C)[C@@](O)(c3ccnc(Cl)c3)C(F)(F)F)c(Cl)c2)c1 (stereo in doubt) [Example 51, 3′-Chloro-4′-[2-(2-chloro-pyridin-4-yl)-3,3,3-trifluoro-2-hydroxy-1-methyl-propyl]-biphenyl-3-carboxylic acid ethyl ester]	6.82
C[C@H](c1ccc(-c2ccc(C(=O)O)c(F)c2)cc1Cl)[C@@](O)(c1ccnc(Cl)c1)C(F)(F)F (stereo in doubt) [Example 54, 3′-Chloro-4′-[2-(2-chloro-pyridin-4-yl)-3,3,3-trifluoro-2-hydroxy-1-methyl-propyl]-3-fluoro-biphenyl-4-carboxylic acid]	7.53
C[C@H](c1ccc(-c2ccc(CCC(=O)O)cc2)cc1Cl)[C@@](O)(c1ccnc(Cl)c1)C(F)(F)F (stereo in doubt) [Example 55, 3-{3′-Chloro-4′-[2-(2-chloro-pyridin-4-yl)-3,3,3-trifluoro-2-hydroxy-1-methyl-propyl]-biphenyl-4-yl}-propionic acid]	7.53
CCOC(=O)c1cccc(-c2ccc([C@@H](C)[C@@](O)(c3ccnc(-c4cccc(C(=O)OCC)c4)c3)C(F)(F)F)c(Cl)c2)c1 (stereo in doubt) [Example 56, 3′-Chloro-4′-{2-[2-(3-ethoxycarbonyl-phenyl)-pyridin-4-yl]-3,3,3-trifluoro-2-hydroxy-1-methyl-propyl}-biphenyl-3-carboxylic acid ethyl ester]	6.68
C[C@H](c1ccc(-c2ccc(C(=O)O)cc2)cc1Cl)[C@@](O)(c1ccnc(-c2ccc(C(=O)O)cc2)c1)C(F)(F)F (stereo in doubt) [Example 57, 4′-{2-[2-(4-Carboxy-phenyl)-pyridin-4-yl]-3,3,3-trifluoro-2-hydroxy-1-methyl-propyl}-3′-chloro-biphenyl-4-carboxylic acid]	6.62
COc1cc(C(=O)O)ccc1Oc1ccc([C@@H](C)[C@@](O)(c2ccnc(Cl)c2)C(F)(F)F)c(Cl)c1 (stereo in doubt) [Example 92, 4-{3-Chloro-4-[2-(2-chloro-pyridin-4-yl)-3,3,3-trifluoro-2-hydroxy-1-methyl-propyl]-phenoxy}-3-methoxy-benzoic acid]	8.24
Cc1cc([C@](O)([C@H](C)c2ccc(OCc3cnn(CC(=O)O)c3)cc2Cl)C(F)(F)F)ccn1 (stereo in doubt) [Example 103, (4-{3-Chloro-4-[3,3,3-trifluoro-2-hydroxy-1-methyl-2-(2-methyl-pyridin-4-yl)-propyl]-phenoxymethyl}-pyrazol-1-yl)-acetic acid]	7.17
COC(=O)c1cnc(OCc2ccc([C@@H](C)[C@@](O)(c3ccnc(Cl)c3)C(F)(F)F)c(Cl)c2)cn1 (stereo in doubt) [Example 120, 5-{3-Chloro-4-[2-(2-chloro-pyridin-4-yl)-3,3,3-trifluoro-2-hydroxy-1-methyl-propyl]-benzyloxy}-pyrazine-2-carboxylic acid methyl ester]	8.01
C[C@H](c1ccc(COc2cnc(C(=O)O)cn2)cc1Cl)[C@@](O)(c1ccnc(Cl)c1)C(F)(F)F (stereo in doubt) [Example 121, 5-{3-Chloro-4-[2-(2-chloro-pyridin-4-yl)-3,3,3-trifluoro-2-hydroxy-1-methyl-propyl]-benzyloxy}-pyrazine-2-carboxylic acid]	7.73
COC(=O)c1ccc(OCc2ccc([C@@H](C)[C@@](O)(c3ccnc(Cl)c3)C(F)(F)F)c(Cl)c2)nn1 (stereo in doubt) [Example 122, 6-{3-Chloro-4-[2-(2-chloro-pyridin-4-yl)-3,3,3-trifluoro-2-hydroxy-1-methyl-propyl]-benzyloxy}-pyridazine-3-carboxylic acid methyl ester]	7.97
C[C@H](c1ccc(COc2ccc(C(=O)O)nn2)cc1Cl)[C@@](O)(c1ccnc(Cl)c1)C(F)(F)F (stereo in doubt) [Example 123, 6-{3-Chloro-4-[2-(2-chloro-pyridin-4-yl)-3,3,3-trifluoro-2-hydroxy-1-methyl-propyl]-benzyloxy}-pyridazine-3-carboxylic acid]	7.46
COC(=O)c1cnc(OCc2ccc([C@@H](C)[C@@](O)(c3ccnc(Cl)c3)C(F)(F)F)c(Cl)c2)nc1 (stereo in doubt) [Example 124, 2-{3-Chloro-4-[2-(2-chloro-pyridin-4-yl)-3,3,3-trifluoro-2-hydroxy-1-methyl-propyl]-benzyloxy}-pyrimidine-5-carboxylic acid methyl ester]	8.06
C[C@H](c1ccc(COc2ncc(C(=O)O)cn2)cc1Cl)[C@@](O)(c1ccnc(Cl)c1)C(F)(F)F (stereo in doubt) [Example 125, 2-{3-Chloro-4-[2-(2-chloro-pyridin-4-yl)-3,3,3-trifluoro-2-hydroxy-1-methyl-propyl]-benzyloxy}-pyrimidine-5-carboxylic acid]	7.61
COC(=O)c1ccc(OCc2ccc([C@@H](C)[C@@](O)(c3ccnc(Cl)c3)C(F)(F)F)c(Cl)c2)nc1 (stereo in doubt) [Example 126, 6-{3-Chloro-4-[2-(2-chloro-pyridin-4-yl)-3,3,3-trifluoro-2-hydroxy-1-methyl-propyl]-benzyloxy}-nicotinic acid methyl ester]	8.07
C[C@H](c1cc(Oc2cnc(C(=O)O)cn2)ccc1Cl)[C@@](O)(c1ccnc(Cl)c1)C(F)(F)F (stereo in doubt) [Example 137, 5-{4-Chloro-3-[2-(2-chloro-pyridin-4-yl)-3,3,3-trifluoro-2-hydroxy-1-methyl-propyl]-phenoxy}-pyrazine-2-carboxylic acid]	5.80
C[C@H](c1cc(Oc2ccc(C(=O)O)nn2)ccc1Cl)[C@@](O)(c1ccnc(Cl)c1)C(F)(F)F (stereo in doubt) [Example 139, 6-{4-Chloro-3-[2-(2-chloro-pyridin-4-yl)-3,3,3-trifluoro-2-hydroxy-1-methyl-propyl]-phenoxy}-pyridazine-3-carboxylic acid]	6.39
C[C@@H](c1ccc(OCc2ccc(C(=O)O)cc2)cc1Cl)[C@](O)(c1cnc2ccccc2c1)C(F)(F)F (stereo in doubt) [Example 141, 4-[3-Chloro-4-(3,3,3-trifluoro-2-hydroxy-1-methyl-2-quinolin-3-yl-propyl)-phenoxymethyl]-benzoic acid]	8.82
COC(=O)C1(c2ccc(COc3ccc([C@H](C)[C@](O)(c4cnc5ccccc5c4)C(F)(F)F)c(Cl)c3)cc2)CC1 (stereo in doubt) [Example 142, 1-{4-[3-Chloro-4-(3,3,3-trifluoro-2-hydroxy-1-methyl-2-quinolin-3-yl-propyl)-phenoxymethyl]-phenyl}-cyclopropanecarboxylic acid methyl ester]	8.18
